SMILES strings stand for the structures. A value given as a limit tells only on which side of the number the result lay.

T1 sequence (P28223 whole entry): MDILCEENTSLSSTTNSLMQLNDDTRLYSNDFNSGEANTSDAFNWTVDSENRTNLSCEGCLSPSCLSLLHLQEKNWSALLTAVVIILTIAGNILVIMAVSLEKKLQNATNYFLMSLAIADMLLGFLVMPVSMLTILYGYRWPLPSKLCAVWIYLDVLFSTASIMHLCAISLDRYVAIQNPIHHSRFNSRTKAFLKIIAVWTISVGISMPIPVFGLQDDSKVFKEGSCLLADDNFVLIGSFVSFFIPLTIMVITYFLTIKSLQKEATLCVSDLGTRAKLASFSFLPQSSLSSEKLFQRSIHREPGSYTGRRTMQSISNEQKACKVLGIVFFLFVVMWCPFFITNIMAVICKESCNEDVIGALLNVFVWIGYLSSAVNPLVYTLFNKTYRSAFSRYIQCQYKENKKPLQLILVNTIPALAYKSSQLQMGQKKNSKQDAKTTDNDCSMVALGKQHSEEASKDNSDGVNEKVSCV

One experiment concerns the target T1, 5HT2A receptor (Homo sapiens, UniProt P28223). The experiment in a line: biochemical. The conditions noted are these: 5HT2A Ki (nM), secondary binding assay, Cheng-Prusoff. Details: expressed in transfected cells; crude membranes. Format: binding.
For `Clc1cccc2c(-c3cccnc3)n[nH]c12` [Example 214, 7-chloro-3-(pyridin-3-yl)-1H-indazole], the inhibition constant Ki is greater than 10000 nM.

`CN1CCC2CC2(c2n[nH]c3c(Cl)cccc23)C1` (centres unmarked) [Example 197, 7-chloro-3-(3-methyl-3-azabicyclo[4.1.0]heptan-1-yl)-1H-indazole] showed an inhibitory constant (Ki) of 1200 nM. In other words, the single-digit micromolar range.

The compound `Cc1cccc2c(C3=CN4CCC3CC4)c[nH]c12` [Example 252, 3-(7-methyl-1H-indol-3-yl)-1-azabicyclo[2.2.2]oct-2-ene] registered a Ki of 6020 nM. Compared with the last compound, the Ki is about 5-fold higher.

On to `Cc1cccc2c(C3=CCN(C)CCC3)n[nH]c12` [Example 205, 7-methyl-3-(1-methyl-2,5,6,7-tetrahydro-1H-azepin-4-yl)-1H-indazole], for which the inhibition constant Ki came out at 217 nM.

Consider `Cc1cccc2c(C34CNCCC3C4(F)F)n[nH]c12` (centres unmarked) [Example 189, 3-(7,7-difluoro-3-azabicyclo[4.1.0]heptan-1-yl)-7-methyl-1H-indazole], for which the affinity corresponds to a Ki of 6920 nM.

For the compound `Clc1cccc2c(-c3cn[nH]c3)n[nH]c12` [Example 218, 7-chloro-3-(1H-pyrazol-4-yl)-1H-indazole], the affinity corresponds to a Ki of 1720 nM.

In turn, `Clc1cccc2c(-c3cnc[nH]3)n[nH]c12` [Example 217, 7-chloro-3-(1H-imidazol-5-yl)-1H-indazole] yielded a Ki greater than 10000 nM.

Compound `Clc1cc(Cl)c2[nH]cc(C3CNC3)c2c1` [Example 266, 3-(azetidin-3-yl)-5,7-dichloro-1H-indole] displayed an inhibition constant (Ki) of 244 nM.

For `CCCc1cccc2c(C3CCCN(C)C3)c[nH]c12` (centres unmarked) [Example 235, 3-(1-methylpiperidin-3-yl)-7-propyl-1H-indole], the affinity corresponds to a Ki of 5550 nM.

In turn, `N#Cc1cccc2c(N3CCNCC3)n[nH]c12` [Example 231, 3-(piperazin-1-yl)-1H-indazole-7-carbonitrile] displayed a Ki of 3010 nM.

For `Fc1cccc2c(C34CNCCC3C4(F)F)n[nH]c12` (centres unmarked) [Example 190, 3-(7,7-difluoro-3-azabicyclo[4.1.0]heptan-1-yl)-7-fluoro-1H-indazole], the affinity, expressed as Ki, was 5370 nM.

For `c1cc(-c2cncnc2)c2[nH]nc(-c3cncnc3)c2c1` [Example 215, 3,7-di(pyrimidin-5-yl)-1H-indazole], the inhibition constant Ki was 3280 nM.

On to `Clc1cccc2c(C3=CCCN(C4CCC4)C3)n[nH]c12` [Example 174, 7-chloro-3-(1-cyclobutyl-1,2,5,6-tetrahydropyridin-3-yl)-1H-indazole], for which affinity was put at a Ki of 9760 nM. This Ki is about 3-fold higher than that of the compound before.

As for `CN1CCN(c2n[nH]c3c(C#N)cccc23)CC1` [Example 233, 3-(4-methylpiperazin-1-yl)-1H-indazole-7-carbonitrile], the affinity, expressed as Ki, was 4830 nM.

Turning to `Clc1cccc2c(C3CN4CCC3CC4)c[nH]c12` (centres unmarked) [Example 251, 3-(7-chloro-1H-indol-3-yl)quinuclidine], the affinity corresponds to a Ki of 1100 nM.

As to `CCCN1CCC=C(c2c[nH]c3cnccc23)C1` [Example 143, 3-(1-propyl-1,2,5,6-tetrahydropyridin-3-yl)-1H-pyrrolo[2,3-c]pyridine], the inhibition constant (Ki) was determined as 9760 nM.

Regarding `Fc1cccc2c(C34CNCC3C4(F)F)n[nH]c12` (centres unmarked) [Example 201, 3-(6,6-difluoro-3-azabicyclo[3.1.0]hexan-1-yl)-7-fluoro-1H-indazole], the Ki came to 4310 nM.

As to `CN1CCC(c2n[nH]c3c(Cl)cccc23)CC1` [Example 240, 7-chloro-3-(1-methylpiperidin-4-yl)-1H-indazole], affinity was put at a Ki of 378 nM.

With `Clc1cccc2c(C3=CCCN(C4COC4)C3)n[nH]c12` [Example 178, 7-chloro-3-(1-(oxetan-3-yl)-1,2,5,6-tetrahydropyridin-3-yl)-1H-indazole], the inhibition constant Ki is greater than 10000 nM.

Turning to `CCCNC1CCC=C(c2n[nH]c3c(Cl)cccc23)C1` (centres unmarked) [Example 171, 3-(7-chloro-1H-indazol-3-yl)-N-propylcyclohex-3-en-1-amine], the inhibition constant Ki was greater than 10000 nM.

On to `Cc1cccc2c(C3=CCNCCC3)n[nH]c12` [Example 204, 7-methyl-3-(2,5,6,7-tetrahydro-1H-azepin-4-yl)-1H-indazole], for which the inhibition constant (Ki) turned out to be 158 nM.

`CN(C)C1CCC=C(c2n[nH]c3c(Cl)cccc23)C1` (centres unmarked) [Example 170, 3-(7-chloro-1H-indazol-3-yl)-N,N-dimethylcyclohex-3-en-1-amine] gave a Ki greater than 10000 nM.

`N#Cc1cccc2c(C34CNCCC3C4(F)F)n[nH]c12` (centres unmarked) [Example 192, 3-(7,7-difluoro-3-azabicyclo[4.1.0]heptan-1-yl)-1H-indazole-7-carbonitrile] displayed a Ki greater than 10000 nM.

The same experiment, now with this note: 5HT2A Ki (nM), secondary radioligand binding, Ki from IC50 by Cheng-Prusoff.
`CC(C)c1ccc2c(C3=CCCN(C)C3)c[nH]c2c1` [Example 34, 6-isopropyl-3-(1-methyl-1,2,5,6-tetrahydropyridin-3-yl)-1H-indole] showed an inhibition constant (Ki) of 486 nM. This lies in the sub-micromolar range.

Compound `OCc1cccc2c(C3=CCCN(Cc4ccccc4)C3)c[nH]c12` [Example 75, (3-(1-benzyl-1,2,5,6-tetrahydropyridin-3-yl)-1H-indol-7-yl)methanol] yielded a Ki greater than 10000 nM.

In the case of `C1=C(c2c[nH]c3ccc(-c4ccccc4)cc23)CNCC1` [Example 27, 5-phenyl-3-(1,2,5,6-tetrahydropyridin-3-yl)-1H-indole], the affinity, expressed as Ki, was 1480 nM.

`Cc1ccc2c(C3=CCCN(C)C3)n[nH]c2c1` [Example 93, 6-methyl-3-(1-methyl-1,2,5,6-tetrahydropyridin-3-yl)-1H-indazole] came in with a Ki of 2920 nM. Against the preceding compound, the Ki is about 2-fold higher.

On to `CN1CCC=C(c2c[nH]c3cc(-c4ccccc4)ccc23)C1` [Example 40, 3-(1-methyl-1,2,5,6-tetrahydropyridin-3-yl)-6-phenyl-1H-indole], for which the inhibition constant (Ki) was determined as 1330 nM.

Regarding `Fc1cccn2c(C3=CCCNC3)cnc12` [Example 111, 8-fluoro-3-(1,2,5,6-tetrahydropyridin-3-yl)imidazo[1,2-a]pyridine], the inhibition constant Ki is greater than 10000 nM.

`CC(C)(C)c1cccc2c(C3=CCCN(Cc4ccccc4)C3)c[nH]c12` [Example 72, 3-(1-benzyl-1,2,5,6-tetrahydropyridin-3-yl)-7-tert-butyl-1H-indole] yielded a Ki of 734 nM. That is a sub-micromolar value.

Regarding `Cc1ccc2c(C3=CCCN(C)C3)c[nH]c2c1` [Example 30, 6-methyl-3-(1-methyl-1,2,5,6-tetrahydropyridin-3-yl)-1H-indole], the inhibitory constant (Ki) amounted to 647 nM.

For `CN1CCC=C(c2c[nH]c3c(CO)cccc23)C1` [Example 58, (3-(1-methyl-1,2,5,6-tetrahydropyridin-3-yl)-1H-indol-7-yl)methanol], the Ki is greater than 10000 nM.

In turn, `CC(C)c1cccc2c(C3=CCCN(C)C3)c[nH]c12` [Example 54, 7-isopropyl-3-(1-methyl-1,2,5,6-tetrahydropyridin-3-yl)-1H-indole] had an inhibition constant Ki of 510 nM.

`Cc1cnc2[nH]cc(C3=CCCNC3)c2c1` [Example 1, 5-methyl-3-(1,2,5,6-tetrahydropyridin-3-yl)-1H-pyrrolo[2,3-b]pyridine]: affinity was put at a Ki of 1720 nM.

`O=C(O)c1cccc2c(C3=CCCN(Cc4ccccc4)C3)c[nH]c12` [Example 74, 3-(1-benzyl-1,2,5,6-tetrahydropyridin-3-yl)-1H-indole-7-carboxylic acid] had an inhibition constant (Ki) greater than 10000 nM.

For `CC(C)c1ccc2[nH]cc(C3=CCCN(C)C3)c2c1` [Example 24, 5-isopropyl-3-(1-methyl-1,2,5,6-tetrahydropyridin-3-yl)-1H-indole], the inhibition constant (Ki) was 105 nM.

The target in a further experiment is T1, 5HT2A receptor. The experiment in a line: cell-based. The conditions noted are these: HEK-293T, BRET1 beta-arrestin2 recruitment, HEK293T cells, normalized to 5-HT; read-out: 5HT2A β-Arr Emax (%). Details: expressed in transfected cells; host or cells: HEK293T cells, transient co-transfection.
As for `COc1ccc2[nH]nc(C3=CCCNC3)c2c1` [Example 87, 5-methoxy-3-(1,2,5,6-tetrahydropyridin-3-yl)-1H-indazole], the Emax stood at 80%.

The target in another experiment is T1, 5HT2A receptor. Nature of the experiment: cell-based. Details: expressed in transfected cells; host or cells: HEK293T cells, transient co-transfection. The conditions noted are these: HEK-293T, BRET2 Gαq dissociation, HEK293T cells, normalized to 5-HT; read-out: 5HT2A Gq Emax (%).
For the compound `COc1ccc2[nH]nc(C3=CCCNC3)c2c1` [Example 87, 5-methoxy-3-(1,2,5,6-tetrahydropyridin-3-yl)-1H-indazole], the maximum response (Emax) was found to be 84.2%.

Values taken from patent publication US20260265246A1 (ICAHN SCHOOL OF MEDICINE AT MOUNT SINAI, priority 2021, published 2026).
